{
  "source": "paper PMC3561363",
  "about": "“A Novel Retro-Inverso Peptide Inhibitor Reduces Amyloid Deposition, Oxidation and Inflammation and Stimulates Neurogenesis in the APPswe/PS1ΔE9 Mouse Model of Alzheimer’s Disease” (PLoS ONE, 2013)",
  "key": {"Aβ42 fibrils": {"biological_target": "Aβ42 fibrils (Homo sapiens, UniProt P05067)", "sequence (P05067 672-713 limits assumed)": "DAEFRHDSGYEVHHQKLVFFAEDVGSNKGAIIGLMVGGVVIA", "test": "Surface plasmon resonance (SPR), immobilized Aβ42 fibrils", "assay_type": "binding", "procedure": "These experiments were conducted using a Sensi Q semi-automatic SPR machine (ICx Nomadics). This apparatus has two parallel flow cells; one was used to immobilize Aβ42 fibrils while the other was used as “reference” (empty surface). A COOH5 sensor chip (ICx Nomadics) was employed for this purpose and the peptide was immobilized by amine coupling chemistry. Briefly, after surface activation, the peptide preparation was diluted to 10 µM in acetate buffer (pH 4.0) and then injected for 5 min at a flow rate of 30 µl/min. Any remaining activated groups were blocked with ethanolamine (pH 8.0). The final immobilization level was ∼5,000 resonance units (1 RU = 1 pg of protein/mm^2). The empty “reference” surface was prepared in parallel using the same immobilization procedure, but without addition of the peptide. Sensorgrams were then obtained via injection of three different concentrations of RI-OR2–TAT (1, 3 and 6 µM), as well as the vehicle (PBS with 0.005% Tween 20), over the immobilized ligand or control surface, in parallel. These SPR data can be interpreted to provide an estimate for the affinity of binding of the inhibitors to Aβ fibrils, [28]. Data for the three concentrations of RI-OR2-TAT were fitted separately by Qdat software [ICx Nomadics] using the 1∶1 pseudo-first order Langmuir interaction model. Eq. 1 was used to fit the association while the dissociation was fitted by eq. 2. The rate constants (kon and koff) were used to calculate kd as reported in eq. 3. [drawing 1] (1) [drawing 2] (2) [drawing 3] (3) Where Rt is binding response at time t; C is the molar concentration of the analyte at the interaction surface at time t; Rmax is the maximal binding response; R0 is the binding response at time t0 (i. e. time at the onset of the dissociation phase); kon is the association rate constant; koff is the dissociation rate constant. Values were expressed as a mean ± SD."}, "[1]": {"system": "8-oxo-guanine in APP/PS1 mouse cortex", "test": "Oxidative stress, 8-oxo-guanine immunostaining, cortex", "assay_type": "in vivo", "settings": "100 nmol/kg i.p. once daily, 21 days, 10 months old APP/PS1 mice, vs saline, p<0.0001, 4 animals per group", "procedure": "(§1) APPswe/PS1ΔE9 mice with a C57Bl/6 background (APP/PS1 mice) were obtained from the Jackson lab (http://research.jax.org/repository/alzheimers.html). […] To look at the effects of RI-OR2-TAT on mouse brain pathology (experiment 2), 8 female 10-months-old APP/PS1 mice were used. The animals were housed in single cages in a temperature controlled holding room (21.5°C±1) with 12∶12 h light and dark cycle. Food and water was available ad libitum.\n(§2) For experiment 2, 4 animals were injected intraperitonially (i.p.) with 0.9% NaCl (vehicle control) and the other 4 with RI-OR2-TAT (100 nmol/kg in 0.9% NaCl) once daily, for 21 days. […]\n(§3) For experiment 2 (effects on brain pathology), sections were examined for activated microglia (using anti-Iba-1 antibody), oxidative stress (anti-8-oxo-guanine antibody), immature neurons (anti-doublecourtin antibody) or total plaque load (anti-Aβ antibody). […] Oxidative stress was assessed by denaturing DNA in each section using 2N HCl and the sections were then stained for 8-oxo guanine (1∶200 dilution, MAB3560, Millipore). Young immature neurons were detected by immunostaining for doublecortin (1∶200 dilution, sc-66911, Santa Cruz Biotechnology). Total plaque load was quantified by immunostaining for β-amyloid (1∶200 dilution, Invitrogen, 71–5800).\n(§4) All sections were visualized using an Axio Scope 1 fluorescence microscope (Zeiss, Germany). […]"}, "Aβ42": {"system": "Aβ42", "test": "Immunoassay for Aβ oligomers (in vitro), 6E10/biotinylated 6E10 sandwich", "assay_type": "biochemical", "settings": "2∶1 and 1∶1 molar ratios of inhibitor:Aβ42; 12.5 µM Aβ42, PBS pH 7.4, 25°C, even at earliest time points 4 and 8 h", "procedure": "This is a more sensitive test than the ThT assay for the detection of early oligomeric forms of Aβ [16]. Microtitre plates (96-well, Maxisorb) were coated with 6E10, diluted 1∶1000 in 10 mM PBS, pH 7.4, for overnight at 4°C. The plates were blocked with assay buffer (Tris-buffered saline (TBS) (pH 7.4), containing 0.05% γ-globulins and 0.005% Tween 20) plus 5% gelatine for 1 h at 37°C. Samples of peptide (12.5 µM Aβ42 and 0, 3.125, 6.25, 12.5, 25 or 62.5 µM RI-OR2–TAT in 10 mM PBS, pH 7.4) were incubated at 25°C for 0, 4, 8, 24 or 48 h, diluted to 1 µM Aβ, and plated in triplicate. The plates were incubated for 1 h at 37°C and then washed with PBS plus 0.05% Tween-20 (PBST). A 1∶1,000 dilution of biotinylated 6E10 was then added to each well, left for 1 h at 37°C, and the plates were washed with PBST. Europium-linked streptavidin was then added to the wells at 1∶500 dilution in StrepE buffer (TBS containing 20 µM DTPA, 0.5% bovine serum albumin, and 0.05% γ-globulins), incubated for 1 h, and washed as before. Enhancer solution was added and the plates were read on a Wallac Victor 2 plate reader, using the time-resolved fluorescence setting for europium."}, "[2]": {"system": "β-amyloid plaques in APP/PS1 mouse cortex", "test": "Amyloid plaque load, β-amyloid immunostaining, cortex", "assay_type": "in vivo", "settings": "100 nmol/kg i.p. once daily, 21 days, 10 months old APP/PS1 mice, vs saline, p<0.0001, N = 4 per group", "procedure": "as §1, §2, §3, §4"}},
  "note": "Where a SMILES comes first, the peptide text is derived from it.",
  "data": [
    {"molecule": "CC(=O)N[C@H](CCCNC(=N)N)C(=O)NCC(=O)N[C@H](Cc1ccccc1)C(=O)N[C@H](Cc1ccccc1)C(=O)N[C@@H](C(=O)N[C@H](CC(C)C)C(=O)N[C@H](CCCCN)C(=O)NCC(=O)N[C@H](CCCNC(=N)N)C(=O)N[C@H](CCCNC(=N)N)C(=O)N[C@H](CCCNC(=N)N)C(=O)N[C@H](CCCNC(=N)N)C(=O)N[C@H](CCC(N)=O)C(=O)N[C@H](CCCNC(=N)N)C(=O)N[C@H](CCCNC(=N)N)C(=O)N[C@H](CCCCN)C(=O)N[C@H](CCCCN)C(=O)N[C@H](CCCNC(=N)N)C(=O)NCC(=O)N[C@H](Cc1ccc(O)cc1)C(N)=O)C(C)C", "note": "[RI-OR2-TAT, Ac-rGffvlkGrrrrqrrkkrGy-NH2] (HELM PEPTIDE1{[ac].[dR].G.[dF].[dF].[dV].[dL].[dK].G.[dR].[dR].[dR].[dR].[dQ].[dR].[dR].[dK].[dK].[dR].G.[dY].[am]}$$$$V2.0)", "values": [
      {"measurement": "fold lower kd than previously reported for RI-OR2", "setting": "Aβ42 fibrils; Aβ42 fibrils, SPR, RI-OR2 value from ref 16", "result": "~100 -fold"},
      {"measurement": "koff", "setting": "Aβ42 fibrils; SPR, 1, 3 and 6 µM, 1∶1 Langmuir model, PBS with 0.005% Tween 20, mean ± SD, read-out: koff (dissociation rate constant)", "result": "0.00037 ± 0.00015", "unit": "s⁻¹"},
      {"measurement": "kon", "setting": "Aβ42 fibrils; SPR, 1, 3 and 6 µM, 1∶1 Langmuir model, PBS with 0.005% Tween 20, mean ± SD, read-out: kon (association rate constant)", "result": "3680 ± 615", "unit": "M⁻¹ s⁻¹"},
      {"measurement": "Kd", "setting": "Aβ42 fibrils; SPR, Aβ42 fibrils, from koff and kon, 1∶1 Langmuir model, three concentrations fitted separately, read-out: kd (calculated apparent affinity)", "result": "58 to 125", "unit": "nM"},
      {"measurement": "reduction of 8-oxo-guanine immunostaining (oxidative damage)", "setting": "[1]", "result": 25, "unit": "%"},
      {"measurement": "development of immunoassay signal (oligomer formation)", "setting": "Aβ42", "result": "considerably reduced the development of an immunoassay signal"},
      {"measurement": "reduction of amyloid plaque load", "setting": "[2]", "result": 32, "unit": "%"}
    ]}
  ]
}
